In ChEMBL document CHEMBL1201862, “PubChem BioAssay data set” (2004):
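Step 1: Grow cells in 96-well plates. Step 2: Expose to compound for 48 hours at 5 concentrations. Step 3: Interpolate endpoints linearly; if unreached, use highest concentration. At the GI50, growth is halved.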 Active and inactive are the calls of the source. Rule as the data show it: active = GI50 up to about 1.1 µM and inactive = higher.

Experiments:
Experiment in all cases: NCI tumour cell line growth inhibition, 48 h
[1] = test system: 786-0
[2] = test system: A498
[3] = test system: A549
[4] = test system: ACHN
[5] = test system: BT-549
[6] = test system: CCRF-CEM
[7] = test system: COLO 205
[8] = test system: DU-145
[9] = test system: HCC 2998
[10] = test system: HCT-116
[11] = test system: HCT-15
[12] = test system: HL-60
[13] = test system: HOP-62
[14] = test system: HOP-92
[15] = test system: HT-29
[16] = test system: Hs-578T
[17] = test system: IGROV-1
[18] = test system: K562
[19] = test system: KM12
[20] = test system: LOX IMVI
[21] = test system: M14
[22] = test system: MCF7
[23] = test system: MDA-MB-231
[24] = test system: MDA-MB-435
[25] = test system: MDA-N
[26] = test system: MOLT-4
[27] = test system: Malme-3M
[28] = test system: NCI-H226
[29] = test system: NCI-H23
[30] = test system: NCI-H460
[31] = test system: NCI/ADR-RES
[32] = test system: OVCAR-3
[33] = test system: OVCAR-4
[34] = test system: OVCAR-5
[35] = test system: PC-3
[36] = test system: RPMI-8226
[37] = test system: RXF 393
[38] = test system: SF-268
[39] = test system: SF-539
[40] = test system: SK-MEL-28
[41] = test system: SK-MEL-2
[42] = test system: SK-MEL-5
[43] = test system: SK-OV-3
[44] = test system: SN12C
[45] = test system: SNB-19
[46] = test system: SR
[47] = test system: SW-620
[48] = test system: T47D
[49] = test system: TK-10
[50] = test system: U-251
[51] = test system: UACC-257
[52] = test system: UACC-62
[53] = test system: UO-31
[54] = test system: CAKI-1
[55] = test system: NCI-H522
[56] = test system: OVCAR-8
[57] = test system: SF-295
[58] = test system: SNB-75
[59] = test system: EKVX

CC1CC[C@@]2(OC1)OC1C[C@H]3[C@@H]4CCC5CC(O)CC[C@]5(C)[C@H]4C/C(=N\N(C)C)[C@]3(C)C1[C@@H]2C (stereo partly drawn)
GI50 [1]: 20.3 µM (inactive)
GI50 [2]: 23 µM (inactive)
GI50 [3]: 35.3 µM (inactive)
GI50 [4]: 30.3 µM (inactive)
GI50 [5]: 29.4 µM (inactive)
GI50 [6]: 37.8 µM (inactive)
GI50 [7]: 19.9 µM (inactive)
GI50 [8]: 21.8 µM (inactive)
GI50 [9]: 19.1 µM (inactive)
GI50 [10]: 23.3 µM (inactive)
GI50 [11]: 23.4 µM
GI50 [12]: 22.2 µM (inactive)
GI50 [13]: 16.7 µM (inactive)
GI50 [14]: 52.8 µM (inactive)
GI50 [15]: 19.6 µM (inactive)
GI50 [16]: 28.6 µM (inactive)
GI50 [17]: 28.7 µM (inactive)
GI50 [18]: 28.2 µM (inactive)
GI50 [19]: 25.5 µM (inactive)
GI50 [20]: 26.7 µM (inactive)
GI50 [21]: 32.3 µM (inactive)
GI50 [22]: 34.9 µM (inactive)
GI50 [23]: 19.2 µM (inactive)
GI50 [24]: 19.5 µM (inactive)
GI50 [25]: 19.9 µM (inactive)
GI50 [26]: 24.7 µM (inactive)
GI50 [27]: 33.1 µM (inactive)
GI50 [28]: 34.2 µM (inactive)
GI50 [29]: 20.3 µM (inactive)
GI50 [30]: 30.5 µM (inactive)
GI50 [31]: 19.5 µM (inactive)
GI50 [32]: 17.9 µM (inactive)
GI50 [33]: 38.3 µM (inactive)
GI50 [34]: 27.1 µM (inactive)
GI50 [35]: 25.6 µM (inactive)
GI50 [36]: 26.9 µM (inactive)
GI50 [37]: 16.3 µM (inactive)
GI50 [38]: 31.1 µM (inactive)
GI50 [39]: 23.8 µM (inactive)
GI50 [40]: 43.7 µM (inactive)
GI50 [41]: 20.5 µM (inactive)
GI50 [42]: 21.7 µM (inactive)
GI50 [43]: 18.7 µM (inactive)
GI50 [44]: 24.8 µM (inactive)
GI50 [45]: 30.1 µM (inactive)
GI50 [46]: 13.8 µM (inactive)
GI50 [47]: 40.3 µM (inactive)
GI50 [48]: 31.8 µM (inactive)
GI50 [49]: 29.2 µM (inactive)
GI50 [50]: 31 µM (inactive)
GI50 [51]: 38.8 µM (inactive)
GI50 [52]: 27.6 µM (inactive)
GI50 [53]: 33.5 µM (inactive)

c1ccc(/N=C2/SC3=Nc4cccc5cccc(c45)N3/C2=N/c2ccccc2)cc1
GI50 [2]: > 100 µM (inactive)
GI50 [5]: > 100 µM (inactive)
GI50 [54]: > 100 µM (inactive)
GI50 [6]: 54.1 µM (inactive)
GI50 [7]: > 100 µM (inactive)
GI50 [8]: > 100 µM (inactive)
GI50 [9]: > 100 µM (inactive)
GI50 [10]: > 10 µM (inactive)
GI50 [11]: > 100 µM
GI50 [12]: > 100 µM (inactive)
GI50 [13]: > 100 µM (inactive)
GI50 [14]: > 100 µM (inactive)
GI50 [15]: > 100 µM (inactive)
GI50 [16]: > 100 µM (inactive)
GI50 [17]: > 100 µM (inactive)
GI50 [18]: > 100 µM (inactive)
GI50 [19]: > 100 µM (inactive)
GI50 [21]: > 100 µM (inactive)
GI50 [22]: > 100 µM (inactive)
GI50 [23]: > 100 µM (inactive)
GI50 [24]: > 100 µM (inactive)
GI50 [25]: > 100 µM (inactive)
GI50 [26]: 79.3 µM (inactive)
GI50 [27]: > 100 µM (inactive)
GI50 [28]: > 100 µM (inactive)
GI50 [29]: > 100 µM (inactive)
GI50 [30]: > 100 µM (inactive)
GI50 [55]: > 100 µM (inactive)
GI50 [31]: > 100 µM (inactive)
GI50 [32]: > 100 µM (inactive)
GI50 [34]: > 100 µM (inactive)
GI50 [56]: > 100 µM (inactive)
GI50 [35]: > 100 µM (inactive)
GI50 [36]: > 100 µM (inactive)
GI50 [37]: > 100 µM (inactive)
GI50 [57]: > 100 µM (inactive)
GI50 [40]: > 100 µM (inactive)
GI50 [41]: > 100 µM (inactive)
GI50 [42]: > 100 µM (inactive)
GI50 [43]: > 100 µM (inactive)
GI50 [44]: > 100 µM (inactive)
GI50 [45]: > 100 µM (inactive)
GI50 [58]: > 100 µM (inactive)
GI50 [46]: > 100 µM (inactive)
GI50 [48]: > 100 µM (inactive)
GI50 [50]: > 100 µM (inactive)
GI50 [52]: > 100 µM (inactive)
GI50 [53]: > 100 µM (inactive)

Nc1cc2nc(O)c(O)nc2cc1N
GI50 [1]: > 100 µM (inactive)
GI50 [2]: > 100 µM (inactive)
GI50 [3]: > 100 µM (inactive)
GI50 [4]: > 100 µM (inactive)
GI50 [5]: > 100 µM (inactive)
GI50 [54]: > 100 µM (inactive)
GI50 [6]: > 100 µM (inactive)
GI50 [7]: > 100 µM (inactive)
GI50 [8]: > 100 µM (inactive)
GI50 [59]: > 100 µM (inactive)
GI50 [9]: > 100 µM (inactive)
GI50 [10]: > 100 µM (inactive)
GI50 [11]: > 100 µM
GI50 [12]: > 100 µM (inactive)
GI50 [13]: > 100 µM (inactive)
GI50 [14]: > 100 µM (inactive)
GI50 [15]: > 100 µM (inactive)
GI50 [16]: > 100 µM (inactive)
GI50 [17]: > 100 µM (inactive)
GI50 [18]: > 100 µM (inactive)
GI50 [19]: > 100 µM (inactive)
GI50 [20]: > 100 µM (inactive)
GI50 [22]: > 100 µM (inactive)
GI50 [23]: > 100 µM (inactive)
GI50 [24]: > 100 µM (inactive)
GI50 [25]: > 100 µM (inactive)
GI50 [26]: > 100 µM (inactive)
GI50 [27]: > 100 µM (inactive)
GI50 [28]: > 100 µM (inactive)
GI50 [29]: > 100 µM (inactive)
GI50 [30]: > 100 µM (inactive)
GI50 [31]: > 100 µM (inactive)
GI50 [32]: > 100 µM (inactive)
GI50 [33]: > 100 µM (inactive)
GI50 [34]: > 100 µM (inactive)
GI50 [56]: > 100 µM (inactive)
GI50 [35]: > 100 µM (inactive)
GI50 [36]: > 100 µM (inactive)
GI50 [37]: > 100 µM (inactive)
GI50 [38]: > 100 µM (inactive)
GI50 [57]: > 100 µM (inactive)
GI50 [39]: > 100 µM (inactive)
GI50 [40]: > 100 µM (inactive)
GI50 [41]: > 100 µM (inactive)
GI50 [42]: > 100 µM (inactive)
GI50 [43]: > 100 µM (inactive)
GI50 [44]: > 100 µM (inactive)
GI50 [45]: > 100 µM (inactive)
GI50 [58]: > 100 µM (inactive)
GI50 [46]: > 100 µM (inactive)
GI50 [47]: > 100 µM (inactive)
GI50 [48]: > 100 µM (inactive)
GI50 [49]: > 100 µM (inactive)
GI50 [50]: > 100 µM (inactive)
GI50 [51]: > 100 µM (inactive)
GI50 [52]: > 100 µM (inactive)
GI50 [53]: > 100 µM (inactive)
